From publication PMC6273912, “Novel 5-Substituted 2-(Aylmethylthio)-4-chloro-N-(5-aryl-1,2,4-triazin-3-yl)benzenesulfonamides: Synthesis, Molecular Structure, Anticancer Activity, Apoptosis-Inducing Activity and Metabolic Stability” (Molecules, 2016)

Legend:
Format in all cases: cell-based, human
HeLa [1] = experiment: Mitochondrial membrane potential (JC-1), HeLa; settings: 24 h, low and moderate concentrations
Method: (§1) Loss of the mitochondrial membrane potential (Δψm) is one of the earliest indicators of an apoptosis. It can be detected using fluorescent dye JC-1 (5,5′,6,6′-tetrachloro-1,1′,3,3′-tetraethylbenzimidazolylcarbocyanine iodide) exited with blue laser. JC-1 spontaneously forms dimer complexes (J aggregates) with red fluorescent or remain as a monomers with green fluorescence in cells with high and low Δψm, respectively.
(§2) Half an hour before the end of 24 h-treatment 2.5 μg/mL of JC-1 (5,5′,6,6′-tetrachloro-1,1′,3,3′-tetraethylbenzimidazolylcarbocyanine iodide) was added to the cell medium. As a negative control 100 μM CCCP (carbonyl cyanide 3-chlorophenylhydrazone) was used 15 min before JC-1 treatment. Following treatment cells were twice washed with PBS and analyzed with flow cytometer (LSR II, BD Biosciences).
(§3) Green and red fluorescence were observed using FL-1 (530 ± 30 nm) and FL-2 (585 ± 42 nm) channels, respectively. Percentage of cell population in red or green fluorescence gate indicated the level of Δψm. Decreasing red fluorescence cell population indicated lower Δψm.

HeLa [2] = experiment: Cell cycle analysis (sub-G1, DAPI flow cytometry), HeLa; settings: 24 h, dose dependent increase, mean ± SD
Method: (§4) One of the most common mechanisms in anticancer drug treatment is changes in cell cycle, which can be measured by DNA content. Cell cycle distribution in HCT-116, HeLa and MCF-7 cells was examined to determine cycle arrest and/or presence of sub-G1 after treatment with compounds 37 and 46. […] Cell populations data are expressed as the mean ± SD of at least three independent experiments.
(§5) Following treatment, cells were fixed in cold 70% ethanol for 30 min. Fixed cells were stained for 15 min in buffer containing 500 μg/mL RNAse A (EURx, Gdansk, Poland) and 2.5 μg/mL of DAPI (Sigma-Aldrich, Munich, Germany). The fluorescence of DAPI was measured at 440 ± 40 nm with a flow cytometer (LSR II, BD Biosciences, Mountain View, CA, USA). Each experiment was performed at least in triplicate. Data were analyzed off-line using the BD FACSDiva (BD Biosciences).

HCT-116 [3] = experiment: Mitochondrial membrane potential (JC-1), HCT-116; settings: HCT-116, 24 h, low and moderate concentrations
Method: as §1, §2, §3

MCF-7 (breast cancer) = experiment: MTT cell viability assay, MCF-7; settings: Homo sapiens, MCF7, 72 h of incubation, mean ± SD
Method: All chemicals, if not stated otherwise, were obtained from Sigma-Aldrich (St. Louis, MO, USA). The MCF-7 cell line was purchased from Cell Lines Services (Eppelheim, Germany), the HeLa and HCT-116 cell lines were obtained from the Department of Microbiology, Tumor and Cell Biology, Karolinska Institute (Stockholm, Sweden). Cells were cultured in Dulbecco’s modified Eagle’s medium (DMEM) supplemented with 10% fetal bovine serum, 2 mM glutamine, 100 units/mL penicillin, and 100 μg/mL streptomycin. Cultures were maintained in a humidified atmosphere with 5% CO2 at 37 °C in an incubator (HeraCell, Heraeus, Langenselbold, Germany).
Cell viability was determined using the MTT (3-(4,5-dimethylthiazol-2-yl)-2,5-diphenyl-tetrazoliumbromide) assay. Stock solutions of the studied compounds were prepared in 100% DMSO. […] Cells were seeded in 96-well plates at a density of 5 × 10^3 cells/well and treated for 72 h with the examined compounds in the concentration range 1–100 μM (1, 10, 25, 50 and 100 μM). Following treatment, MTT (0.5 mg/mL) was added to the medium and cells were further incubated for 2 h at 37 °C. Cells were lysed with DMSO and the absorbance of the formazan solution was measured at 550 nm with a plate reader (1420 multilabel counter, Victor, Jügesheim, Germany). […] The experiment was performed in triplicate. Values are expressed as the mean ± SD of at least three independent experiments.

HCT-116 [4] = experiment: Cell cycle analysis (sub-G1, DAPI flow cytometry), HCT-116; settings: HCT-116, 24 h, dose dependent increase, mean ± SD
Method: as §4, §5

HeLa [5] = experiment: Cell morphology (light microscope), HeLa; settings: 25–100 μM, 24 h
Method: To evaluate the changes in morphology of the treated cells, they were incubated with increasing concentrations of 37 (HCT-116, HeLa) or 46 (MCF-7) for 24 h and observed using light microscope.
The HCT-116, HeLa and MCF-7cells were seeded on 24-well plates (5 × 10^4/per well) in 300 μL of medium and incubated with 37 (HCT-116, HeLa) or 46 (MCF-7) for 24 h. Cells incubated with increasing concentrations of compounds (25–100 μM) were observed after 24 h using light microscope Axiovert 200 (Zeiss, Oberkochen, Germany).

Compound: Cc1cc(S(=O)(=O)Nc2nncc(-c3ccc(C(F)(F)F)cc3)n2)c(SCc2cccc3ccccc23)cc1Cl [Compound 37, 4-Chloro-5-methyl-2-[(naphthalene-1-yl)methylthio]-N-[5-(4-trifluoromethylphenyl)-1,2,4-triazin-3-yl]-benzenesulfonamide]
- effect on mitochondrial membrane potential (Δψm) (HeLa [1]): remarkably decreased Δψm
- Sub-G1 cell population (HeLa [2]): 21% ± 3.4%
- effect on mitochondrial membrane potential (Δψm) (HCT-116 [3]): remarkably decreased Δψm
- IC50 (MCF-7 (breast cancer)): 70 ± 3 µM
- Sub-G1 cell population (HCT-116 [4]): 48.6% ± 13.5%
- morphological changes (HeLa [5]): shrinkage of the cells, detachment from the surface
